“Also recorded” adds a separate entry of the source. Peptide text beside a SMILES is read from it. * marks the point of attachment. X1 = CCCCCCCCCCCCCCCC(=O)OCC(C*)OC(=O)CCCCCCCCCCCCCCC

Data set [1] deals with B16 melanoma tumor cells. The data set is described as follows: B16 melanoma tumor model with cisplatin chemotherapy. As to the method: The impact of combining FSL-1 treatment with chemotherapy as a therapeutic against cancer was also tested. In this study, B16 melanoma tumor cells (50,000) in matrigel matrix were implanted into the flank (SC) of wild type animals and were allowed to grow 10 days to palpation (˜3-5 mm in diameter). Mice were then treated with chemotherapy agent cisplatin (intravenous IV, 100 μg/mouse) with and without FSL-1 (SC, 40 μg/mouse). Changes in tumor volume (ellipsoidal volume calculation of ½ width*width*length, mm^3) were monitored along with changes in body weight and condition.

For data set [2], the system named is mice treated with FSL-1 post TBI. The data set is described as follows: Late effects of radiation: long-term survivors, MRI of tissues. The format is in vivo. As to conditions: survivors of more than 600 days. The text has this: MRI was used to detect multiple tissues in these survivors, such as brain, gut, kidney or spleen. […] FSL-1 is found to accelerate hematopoietic cell recovery in bone marrow, spleen and periphery, and augments systemic levels of hematopoiesis stimulating factors (G-CSF).

Data set [3] has as its system irradiated male C57BL/6 mice. The data set is described as follows: Radiomitigation activity of TLR2 ligands after TBI. The format is in vivo. As to conditions: IP injection 24 hr post TBI. As to the method:
The radiomitigation activity of TLR2 ligands was delineated (FIGS. 1C and 1D), including FSL-1, by irradiating male C57BL/6 mice and treating (IP injections) with either FSL-1, Pam2CSK4 (Pam2Cys-SKKKK, TLR2/6 ligand), or Pam3CSK4 (Pam3Cys-SKKKK, TLR1/2 ligand) at 24 hours (hr) post TBI.

Data set [4] concerns C57BL/6 mice exposed to 9.2 Gy gamma radiation (total body irradiation). The data set is described as follows: Survival and clinical score after lethal total body irradiation, TLR ligands given IP. The format is in vivo. To be noted: 9.2 Gy TBI, IP injection one day after radiation, survival over 30 days. The protocol: To examine the role of TLR ligands as radio-mitigators, FSL-1 (TLR2/6 ligand) was first compared with other TLR ligands (FIGS. 1A and 1B). In this experiment, C57BL/6 mice were exposed to 9.2 Gy gamma radiation (total body irradiation, or TBI) using 137-Cesium irradiator and then the mice were treated with TLR ligands via intraperitoneal (IP) injections one day after radiation. The impact of CpG-ODN2395 (CpG, TLR9 agonist), Flagellin FliC (Fla, TLR5 agonist), MPLA (TLR4 agonist) or FSL-1 (Pam2[…], TLR2/6 agonist) in comparison to mice treated with physiological water (no treatment, NT) was examined. Survival was monitored over 30 days and clinical scores were recorded. […] Eight independent experiments have been completed, each showing the survival rate of FSL-1-treated mice ranged from 50% to 100% with the mean rate of 80%. The lowest one is presented herein.
The Clinical Score is based on changes to body condition that included body weight, body temperature, physical appearance, grooming, posture, activity/behavior, appetite and hydration. Supplementation with wet feed, subcutaneous fluids, long sipper tubes, were provided as needed.

Data set [5] deals with irradiated mice. To be noted: only when injected subcutaneously daily from day 1 to 16 (16 doses); cited from earlier work.

Consider `CCCCCCCCCCCCCCCC(=O)OCC(CSC[C@H](N)C(=O)NCC(=O)N[C@@H](CC(=O)O)C(=O)N1CCC[C@H]1C(=O)N[C@@H](CCCCN)C(=O)N[C@@H](Cc1c[nH]cn1)C(=O)N1CCC[C@H]1C(=O)N[C@@H](CCCCN)C(=O)N[C@@H](CO)C(=O)N[C@@H](Cc1ccccc1)C(=O)O)OC(=O)CCCCCCCCCCCCCCC` (stereo partly shown) [FSL-1] (H-C(X1)GDPKHPKSF-OH), for which the body weight result in data set [1] (mouse, in vivo) is given as “maintained weight for nearly 2 weeks following treatment”. Also, in data set [2], the “MRI of tissues (brain, gut, kidney, spleen)” value is listed as “no physiologic changes” and the “symptoms of disease in long-term survivors” value was “no symptoms of any diseases; also recorded: without any symptoms of leukemia or other diseases”.

On to `N.N.[Cl][Pt][Cl]` [cisplatin], for which, in data set [1] (by day 19), the “animals reaching the 2 cm tumor diameter endpoint” value was “two”. In data set [1] (mouse, in vivo), the body condition result was “reduced body condition” and the body weight entry is on record as “dramatically lost weight after day 19”.

Take Pam2Cys-SKKKK [Pam2CSK4]: in data set [3], the survival entry is given as “promoted survival”.

With Pam3Cys-SKKKK [Pam3CSK4], in data set [3], the survival entry was “promoted survival”.

B1: Flagellin FliC: TLR5 agonist (protein, UniProt P06179 2-495, looked up)
Flagellin: AQVINTNSLSLLTQNNLNKSQSALGTAIERLSSGLRINSAKDDAAGQAIANRFTANIKGLTQASRNANDGISIAQTTEGALNEINNNLQRVRELAVQSANSTNSQSDLDSIQAEITQRLNEIDRVSGQTQFNGVKVLAQDNTLTIQVGANDGETIDIDLKQINSQTLGLDTLNVQQKYKVSDTAATVTGYADTTIALDNSTFKASATGLGGTDQKIDGDLKFDDTTGKYYAKVTVTGGTGKDGYYEVSVDKTNGEVTLAGGATSPLTGGLPATATEDVKNVQVANADLTEAKAALTAAGVTGTASVVKMSYTDNNGKTIDGGLAVKVGDDYYSATQNKDGSISINTTKYTADDGTSKTALNKLGGADGKTEVVSIGGKTYAASKAEGHNFKAQPDLAEAAATTTENPLQKIDAALAQVDTLRSDLGAVQNRFNSAITNLGNTVNNLTSARSRIEDSDYATEVSNMSRAQILQQAGTSVLAQANQVPQNVLSLLR
As for B1, in data set [4], the “protection from radiation-induced death” value was “did not show any protection”.

B2: G-CSF: granulocyte colony-stimulating factor, approved radiation countermeasure (protein, UniProt P09919 31-207, looked up)
Granulocyte …: TPLGPASSLPQSFLLKCLEQVRKIQGDGAALQEKLVSECATYKLCHPEELVLLGHSLGIPWAPLSSCPSQALQLAGCLSQLHSGLFLYQGLLQALEGISPELGPTLDTLQLDVADFATTIWQQMEELGMAPALQPTQGAMPAFASAFQRRAGGVLVASHLQSFLEVSYRVLRHLAQP
On to B2, for which the “survival of irradiated mice” value in data set [5] is on record as “increase the survival”.

The values above are taken from patent US11918621B2, “Methods and treatments using toll-like receptor agonists to mitigate hematopoietic myeloid loss, increase gastrointestinal recovery and reduce tumor growth” (priority 2017, dated 2024).
